Results published in patent publication US6328992A, “Cannabinoid patch and method for cannabis transdermal delivery” (priority 2000, dated 2001).

What was measured:
[1] = from patch of Example A; human cadaver epidermis, 37 degree Celsius, seven days
[2] = prior experimentation; cited from earlier work
[3] = solubility of THC in aqueous and ionic solutions; format: physicochemical
Text: Furthermore, THC is insoluble with many solutions, including aqueous and ionically charged solutions. An application of an ionic aqueous solution to a porous material will hinder the diffusion rate of THC through the material and decrease flux of cannabis. Therefore, an appropriate combination of porous THC absorbing material, combined with a solution that is insoluble with THC, can form a suitable rate control means. An example of such a rate controlling membrane includes mixing salt water with a porous rubber membrane that covers the cavity. The thickness of the porous rubber membrane, the concentration of the salt water, and the amount of available cannabis in the cavity are optimized experimentally to create a desired flux of THC to the patient's skin. Evaporation of necessary fluids may be prevented by a protective backing layer.

SMILES	individual cannabinoid flux [1]	diffusion through porous materials such as rubber and plastic [2]	solubility with aqueous and ionically charged solutions [3]
C=C(C)[C@@H]1CCC(C)=C[C@H]1c1c(O)cc(CCCCC)cc1O [CBD, cannabidiol]	5.25 micrograms per square centimeter per hour	–	–
CCCCCc1cc(O)c2c(c1)OC(C)(C)c1ccc(C)cc1-2 [CBN, cannabinol]	4.8 micrograms per square centimeter per hour	–	–
CCCCCc1cc(O)c2c(c1)OC(C)(C)[C@@H]1CCC(C)=C[C@@H]21 [THC, tetrahydrocannabinol]	–	diffuse rapidly	insoluble
CCCCCc1cc(O)c2c(c1)OC(C)(C)C1CC=C(C)CC21 (stereo not drawn) [delta 8 THC]	0.45 micrograms per square centimeter per hour	–	–
CCCCCc1cc(O)c2c(c1)OC(C)(C)C1CCC(C)=CC21 (stereo not drawn) [delta 9 THC]	4.5 micrograms per square centimeter per hour	–	–
